Assay results as given in paper PMC2895947 (Neuropsychopharmacology : official publication of the …, 2010).

How the values were obtained:
CB1 receptor [1] = molecular target: T1, CB1 receptor (Mus musculus, UniProt P47746); type: biochemical, mice
CB1 receptor [2] = molecular target: T1, CB1 receptor; test: Agonist-stimulated [35S]GTPγS binding in spinal cord membranes; type: biochemical, mice
FAAH−/− and FAAH+/+ mice [3] = test: Rimonabant-precipitated withdrawal; type: in vivo; settings: after subchronic 50 mg/kg twice daily 5.5 days; rimonabant 10 mg/kg i.p.
CB1 receptor [4] = molecular target: T1, CB1 receptor; test: [3H]WIN55,212-2 autoradiography in brain sections after subchronic treatment; type: binding; settings: FAAH−/− mice treated subchronically; 1 nM radioligand; mean ± SEM
FAAH−/− and FAAH+/+ mice [5] = settings: FAAH−/− mice ref Cravatt et al., 2001; cited from earlier work
FAAH−/− and FAAH+/+ mice [6] = test: Hypothermia; type: in vivo
[7] = THC blood and brain levels, single bolus vs cumulative dosing; type: in vivo; settings: C57Bl/6J mice, mean ± SEM
FAAH−/− and FAAH+/+ mice [8] = test: Tail withdrawal; type: in vivo
FAAH−/− and FAAH+/+ mice [9] = test: Bar test for catalepsy, cumulative dose-response; type: in vivo
[10] = FAAH−/− mice treated subchronically, WIN55,212-2 10 μM, mean ± SEM
[11] = FAAH+/+ mice, naive, cumulative dosing
[12] = FAAH−/− mice, naive, cumulative dosing
[13] = Table 3, FAAH−/− mice, subchronic AEA
[14] = Table 3, FAAH−/− mice, subchronic THC
[15] = Table 3, FAAH−/− mice, subchronic vehicle

T1 sequence (P47746 whole entry): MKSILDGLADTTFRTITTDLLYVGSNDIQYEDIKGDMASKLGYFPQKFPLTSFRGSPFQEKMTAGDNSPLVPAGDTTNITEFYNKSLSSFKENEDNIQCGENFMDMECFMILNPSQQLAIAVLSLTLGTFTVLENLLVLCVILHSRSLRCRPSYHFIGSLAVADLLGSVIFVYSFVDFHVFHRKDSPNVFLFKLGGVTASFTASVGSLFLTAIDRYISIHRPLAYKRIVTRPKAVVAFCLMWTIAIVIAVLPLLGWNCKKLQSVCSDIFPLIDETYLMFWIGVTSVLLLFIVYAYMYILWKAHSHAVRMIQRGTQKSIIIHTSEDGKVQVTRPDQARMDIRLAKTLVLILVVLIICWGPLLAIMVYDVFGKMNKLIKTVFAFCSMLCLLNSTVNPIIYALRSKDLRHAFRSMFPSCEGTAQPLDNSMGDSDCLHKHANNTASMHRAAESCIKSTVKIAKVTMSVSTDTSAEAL

## CCCCC/C=C\C/C=C\C/C=C\C/C=C\CCCC(=O)NCCO [AEA, N-arachidonoyl ethanolamine]
CB1 receptor [1]; FAAH+/+ and FAAH−/− mice, caudate putamen, hippocampus, cerebellum
  WIN55,212-2-stimulated [35S]GTPγS binding vs vehicle control (study 1, Figure 5): not different from vehicle control
CB1 receptor [1]; [10]
  Net WIN55,212-2-stimulated [35S]GTPγS binding, Caudate-Putamen: 152 ± 28 nCi/g
  Net WIN55,212-2-stimulated [35S]GTPγS binding, Cerebellum: 178 ± 23 nCi/g
  Net WIN55,212-2-stimulated [35S]GTPγS binding, Globus Pallidus: 639 ± 60 nCi/g
  Net WIN55,212-2-stimulated [35S]GTPγS binding, Hippocampus: 132 ± 24 nCi/g
  Net WIN55,212-2-stimulated [35S]GTPγS binding, PAG: 79 ± 19 nCi/g
  Net WIN55,212-2-stimulated [35S]GTPγS binding, Substantia Nigra: 592 ± 49 nCi/g
CB1 receptor [2]; spinal cord membranes from AEA-treated FAAH−/− mice
  Emax of agonist-stimulated [35S]GTPγS binding: 35 ± 3.3 % Stim
CB1 receptor [2]; spinal cord membranes from AEA-treated mice
  Emax as percent of that obtained in vehicle-treated mice: 104%
CB1 receptor [2]; spinal cord membranes from THC-treated FAAH−/− mice
  Emax of agonist-stimulated [35S]GTPγS binding: 25 ± 2.3 % Stim
CB1 receptor [2]; spinal cord membranes from THC-treated mice
  Emax as percent of that obtained in vehicle-treated mice: 75%
CB1 receptor [2]; spinal cord membranes from vehicle-treated FAAH−/− mice
  Emax of agonist-stimulated [35S]GTPγS binding: 34 ± 1.6 % Stim
FAAH−/− and FAAH+/+ mice [3]
  Rimonabant precipitated head twitches / headshakes: no changes
CB1 receptor [4]
  Specific [3H]WIN55,212-2 binding, Caudate-Putamen: 0.95 ± 0.09 pCi/g
  Specific [3H]WIN55,212-2 binding, Cerebellum: 1.69 ± 0.18 pCi/g
  Specific [3H]WIN55,212-2 binding, Globus Pallidus: 2.31 ± 0.18 pCi/g
  Specific [3H]WIN55,212-2 binding, Hippocampus: 0.88 ± 0.06 pCi/g
  Specific [3H]WIN55,212-2 binding, PAG: 0.57 ± 0.06 pCi/g
  Specific [3H]WIN55,212-2 binding, Substantia Nigra: 3.11 ± 0.29 pCi/g
FAAH−/− and FAAH+/+ mice [5]
  Persistence of antinociception, catalepsy, locomotor inhibition and hypothermia: 6 to 8 h

## CCCCCc1cc(O)c2c(c1)OC(C)(C)[C@@H]1CCC(C)=C[C@@H]21 [THC, Δ^9-tetrahydrocannabinol]
FAAH−/− and FAAH+/+ mice [6]; [11]
  Hypothermia ED50 (95% CI): 18 (15-22) mg/kg
FAAH−/− and FAAH+/+ mice [6]; FAAH+/+ mice, subchronic THC
  Hypothermia ED50 (95% CI): 109 (62- 190) mg/kg
FAAH−/− and FAAH+/+ mice [6]; [12]
  Hypothermia ED50 (95% CI): 22 (16-32) mg/kg
FAAH−/− and FAAH+/+ mice [6]; FAAH−/− mice, subchronic AEA
  Hypothermia ED50 (95% CI): 133 (106- 166) mg/kg
FAAH−/− and FAAH+/+ mice [6]; FAAH−/− mice, subchronic THC
  Hypothermia ED50 (95% CI): 224 (190- 266) mg/kg
FAAH−/− and FAAH+/+ mice [6]; [13]
  Hypothermia ED50 (95% CI): 50 (40-55) mg/kg
FAAH−/− and FAAH+/+ mice [6]; [14]
  Hypothermia ED50 (95% CI): 32 (27-38) mg/kg
FAAH−/− and FAAH+/+ mice [6]; [15]
  Hypothermia ED50 (95% CI): 17 (15-20) mg/kg
[7]; THC 3 mg/kg
  Brain THC level, single bolus: 77 ± 5 ng/mL
[7]; THC 10 mg/kg
  Brain THC level, single bolus: 212 ± 19 ng/mL
[7]; THC 30 mg/kg cumulative
  Brain THC level, cumulative dosing: 641 ± 134 ng/mL
[7]; THC 30 mg/kg
  Brain THC level, single bolus: 520 ± 79 ng/mL
[7]; THC 56 mg/kg cumulative
  Brain THC level, cumulative dosing: 1294 ± 178 ng/mL
[7]; THC 56 mg/kg
  Brain THC level, single bolus: 1072 ± 156 ng/mL
FAAH−/− and FAAH+/+ mice [3]
  Rimonabant precipitated head twitches / headshakes: significant increases
FAAH−/− and FAAH+/+ mice [8]; [11]
  Antinociception ED50 (95% CI): 19 (14-26) mg/kg
FAAH−/− and FAAH+/+ mice [8]; [12]
  Antinociception ED50 (95% CI): 22 (17-30) mg/kg
FAAH−/− and FAAH+/+ mice [8]; FAAH−/− mice, subchronic THC 50 mg/kg twice daily 5.5 days, @ 300 mg/kg
  Antinociception maximum effect ± SEM: 25 + 4%MPE @ 300 mg/kg
FAAH−/− and FAAH+/+ mice [8]; [13]
  Antinociception ED50 (95% CI): 55 (44-69) mg/kg
FAAH−/− and FAAH+/+ mice [8]; [14]
  Antinociception ED50 (95% CI): 76 (58-99) mg/kg
FAAH−/− and FAAH+/+ mice [8]; [15]
  Antinociception ED50 (95% CI): 20 (16-24) mg/kg
FAAH−/− and FAAH+/+ mice [9]; [11]
  Catalepsy ED50 (95% CI): 18 (13-25) mg/kg
FAAH−/− and FAAH+/+ mice [9]; FAAH+/+ mice, subchronic THC, @ 300 mg/kg
  Catalepsy maximum effect: 62% @ 300 mg/kg
FAAH−/− and FAAH+/+ mice [9]; [12]
  Catalepsy ED50 (95% CI): 21 (15-28) mg/kg
FAAH−/− and FAAH+/+ mice [9]; FAAH−/− mice, subchronic AEA, @ 300 mg/kg
  Catalepsy maximum effect: 25% @ 300 mg/kg
FAAH−/− and FAAH+/+ mice [9]; FAAH−/− mice, subchronic THC, @ 300 mg/kg
  Catalepsy maximum effect: 67% @ 300 mg/kg
FAAH−/− and FAAH+/+ mice [9]; [13]
  Catalepsy ED50 (95% CI): 62 (56-69) mg/kg
FAAH−/− and FAAH+/+ mice [9]; Table 3, FAAH−/− mice, subchronic THC, @ 150 mg/kg
  Catalepsy maximum effect: 50% @ 150 mg/kg
FAAH−/− and FAAH+/+ mice [9]; [15]
  Catalepsy ED50 (95% CI): 16 (13-19) mg/kg
